Assay results from ChEMBL document CHEMBL5463721, “Data for DCP probe WEB2086” (2023).

Experiments:
[1] = target: D(2) dopamine receptor (Homo sapiens) (UniProt P14416); assay: Agonist activity in the Eurofins Cerep SafetyScreen44 (BI) against D2SH_AGON by Scintillation counting (Cerep_1322); settings: Compound concentration 10.0 uM
[2] = target: Beta-2 adrenergic receptor (Homo sapiens) (UniProt P07550); assay: beta 2 Eurofins-Cerep binding assay; settings: Compound concentration 10.0 uM
[3] = target: Kappa-type opioid receptor (Homo sapiens) (UniProt P41145); assay: kappa (KOP) Eurofins-Cerep binding assay; settings: Compound concentration 10.0 uM
Chain of Kappa-type opioid receptor (Homo sapiens) (P41145 whole entry): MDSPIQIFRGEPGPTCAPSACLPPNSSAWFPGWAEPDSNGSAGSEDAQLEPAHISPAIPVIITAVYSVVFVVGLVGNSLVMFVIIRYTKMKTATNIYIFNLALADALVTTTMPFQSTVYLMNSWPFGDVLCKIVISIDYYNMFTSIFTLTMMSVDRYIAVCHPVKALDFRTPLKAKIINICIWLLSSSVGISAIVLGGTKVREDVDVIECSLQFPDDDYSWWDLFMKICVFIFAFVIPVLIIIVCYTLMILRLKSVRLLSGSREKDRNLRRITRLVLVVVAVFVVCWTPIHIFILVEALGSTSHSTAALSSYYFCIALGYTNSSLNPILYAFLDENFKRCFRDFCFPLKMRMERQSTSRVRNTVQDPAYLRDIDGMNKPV

[4] = target: 5-hydroxytryptamine receptor 3A (Homo sapiens) (UniProt P46098); assay: 5-HT3 Eurofins-Cerep binding assay; design: ligand concentration 0.5 nM; settings: Compound concentration 10.0 uM
[5] = target: Tyrosine-protein kinase Lck (Homo sapiens) (UniProt P06239); assay: Inhibitor of LCK_CE in the Eurofins Cerep SafetyScreen44 (BI) by lanthanide chelation excitation (Cerep_2906); settings: Compound concentration 10.0 uM
Chain of Tyrosine-protein kinase Lck (Homo sapiens) (P06239 2-509 limits assumed): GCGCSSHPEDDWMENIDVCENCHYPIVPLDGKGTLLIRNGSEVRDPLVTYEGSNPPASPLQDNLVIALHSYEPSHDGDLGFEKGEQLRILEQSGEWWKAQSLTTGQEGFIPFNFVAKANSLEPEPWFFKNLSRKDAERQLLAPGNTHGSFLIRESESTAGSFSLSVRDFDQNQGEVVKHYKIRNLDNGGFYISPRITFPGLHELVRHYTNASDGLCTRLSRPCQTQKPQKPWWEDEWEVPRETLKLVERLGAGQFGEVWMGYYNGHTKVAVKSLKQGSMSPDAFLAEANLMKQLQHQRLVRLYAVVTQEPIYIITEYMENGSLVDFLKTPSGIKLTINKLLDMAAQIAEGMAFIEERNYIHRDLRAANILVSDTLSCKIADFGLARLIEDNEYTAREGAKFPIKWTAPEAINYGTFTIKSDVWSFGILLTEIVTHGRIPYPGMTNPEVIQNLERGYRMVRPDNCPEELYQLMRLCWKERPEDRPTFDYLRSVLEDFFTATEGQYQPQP

Rattus norvegicus [6] = species on record: Rattus norvegicus; assay: Activity against BZD/CENTR/R in the Eurofins Cerep SafetyScreen44 (BI) by Radioactive Assay (Cerep_28); assay type: protein-complex assay; settings: Compound concentration 10.0 uM
[7] = target: Cholecystokinin receptor type A (Homo sapiens) (UniProt P32238); assay: CCK1 (CCKA) Eurofins-Cerep binding assay; design: ligand concentration 0.08 nM; settings: Compound concentration 10.0 uM
[8] = target: Muscarinic acetylcholine receptor M2 (Homo sapiens) (UniProt P08172); assay: M2 Eurofins-Cerep binding assay; design: ligand concentration 2 nM; settings: Compound concentration 10.0 uM
Chain of Muscarinic acetylcholine receptor M2 (Homo sapiens) (P08172 whole entry): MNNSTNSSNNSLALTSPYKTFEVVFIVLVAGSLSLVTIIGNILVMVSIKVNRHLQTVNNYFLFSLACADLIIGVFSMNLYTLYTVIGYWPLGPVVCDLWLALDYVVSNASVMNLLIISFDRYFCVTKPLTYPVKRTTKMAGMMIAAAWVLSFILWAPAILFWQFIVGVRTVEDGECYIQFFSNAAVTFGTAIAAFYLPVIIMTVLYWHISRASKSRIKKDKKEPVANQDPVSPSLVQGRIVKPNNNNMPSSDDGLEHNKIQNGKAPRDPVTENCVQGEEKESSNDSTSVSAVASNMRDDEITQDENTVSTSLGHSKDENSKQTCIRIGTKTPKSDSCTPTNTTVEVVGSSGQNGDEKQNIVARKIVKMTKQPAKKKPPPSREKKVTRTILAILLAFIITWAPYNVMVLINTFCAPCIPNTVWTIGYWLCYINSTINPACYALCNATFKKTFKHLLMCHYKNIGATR

[9] = target: Histamine H1 receptor (Homo sapiens) (UniProt P35367); assay: H1 Eurofins-Cerep binding assay; design: ligand concentration 1 nM; settings: Compound concentration 10.0 uM
[10] = target: Muscarinic acetylcholine receptor M3 (Homo sapiens) (UniProt P20309); assay: M3 Eurofins-Cerep binding assay; design: ligand concentration 0.2 nM; settings: Compound concentration 10.0 uM
Chain of Muscarinic acetylcholine receptor M3 (Homo sapiens) (P20309 whole entry, looked up): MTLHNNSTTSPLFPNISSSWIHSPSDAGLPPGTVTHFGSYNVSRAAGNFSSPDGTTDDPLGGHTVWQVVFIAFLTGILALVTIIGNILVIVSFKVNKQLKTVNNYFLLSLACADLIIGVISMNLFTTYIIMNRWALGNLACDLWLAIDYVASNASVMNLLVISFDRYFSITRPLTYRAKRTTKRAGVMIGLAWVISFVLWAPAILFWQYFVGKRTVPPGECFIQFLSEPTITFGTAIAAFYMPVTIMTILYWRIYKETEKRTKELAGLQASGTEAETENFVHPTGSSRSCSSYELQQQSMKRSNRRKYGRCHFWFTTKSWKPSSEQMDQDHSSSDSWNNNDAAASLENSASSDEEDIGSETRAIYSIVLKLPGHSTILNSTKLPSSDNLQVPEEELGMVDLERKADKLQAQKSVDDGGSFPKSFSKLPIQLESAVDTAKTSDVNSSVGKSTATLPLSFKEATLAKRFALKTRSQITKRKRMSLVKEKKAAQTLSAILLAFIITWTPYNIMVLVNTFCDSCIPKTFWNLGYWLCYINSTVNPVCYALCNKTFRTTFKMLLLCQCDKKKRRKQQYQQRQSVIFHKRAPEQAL

[11] = target: Delta-type opioid receptor (Homo sapiens) (UniProt P41143); assay: delta (DOP) Eurofins-Cerep binding assay; design: ligand concentration 0.5 nM; settings: Compound concentration 10.0 uM
[12] = target: Histamine H2 receptor (Homo sapiens) (UniProt P25021); assay: H2 Eurofins-Cerep binding assay; design: ligand concentration 0.075 nM; settings: Compound concentration 10.0 uM
Chain of Histamine H2 receptor (Homo sapiens) (P25021 whole entry): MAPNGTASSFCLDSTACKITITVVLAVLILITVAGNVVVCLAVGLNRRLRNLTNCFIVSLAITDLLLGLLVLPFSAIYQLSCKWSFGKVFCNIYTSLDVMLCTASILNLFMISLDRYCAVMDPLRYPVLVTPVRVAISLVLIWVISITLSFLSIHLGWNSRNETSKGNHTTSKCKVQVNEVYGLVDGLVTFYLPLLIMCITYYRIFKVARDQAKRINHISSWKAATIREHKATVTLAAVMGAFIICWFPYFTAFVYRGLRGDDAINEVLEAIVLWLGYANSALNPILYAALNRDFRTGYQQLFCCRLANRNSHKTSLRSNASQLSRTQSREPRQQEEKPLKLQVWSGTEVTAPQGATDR

Rattus norvegicus [13] = species on record: Rattus norvegicus; assay: KV channel Eurofins-Cerep binding assay; design: ligand concentration 0.01 nM; settings: Compound concentration 10.0 uM
[14] = target: Adenosine receptor A2a (Homo sapiens) (UniProt P29274); assay: A2A Eurofins-Cerep binding assay; design: ligand concentration 6 nM; settings: Compound concentration 10.0 uM
[15] = target: Androgen receptor (Homo sapiens) (UniProt P10275); settings: Compound concentration 10.0 uM
Description: Activity against ANDROGEN/H in the Eurofins Cerep SafetyScreen44 (BI) by Radioactive Assay (Cerep_933)

[16] = target: Glucocorticoid receptor (Homo sapiens) (UniProt P04150); assay: GR Eurofins-Cerep binding assay; settings: Compound concentration 10.0 uM
[17] = target: Endothelin-1 receptor (Homo sapiens) (UniProt P25101); assay: ETA Eurofins-Cerep binding assay; design: ligand concentration 0.03 nM; settings: Compound concentration 10.0 uM
[18] = target: 5-hydroxytryptamine receptor 1A (Homo sapiens) (UniProt P08908); assay: 5-HT1A Eurofins-Cerep binding assay; design: ligand concentration 0.5 nM; settings: Compound concentration 10.0 uM
[19] = target: L-type calcium channel (dihydropyridine site), Cav1.2 alpha-1C (Rattus norvegicus, UniProt P22002); assay: Inhibitor of CA+/DHPSI/R in the Eurofins Cerep SafetyScreen44 (BI) by Radioactive Assay (Cerep_161); assay type: protein assay; design: scale not given: the % may be the effect or the level left; settings: rat brain, probe [3H](+)PN200-110, compound concentration 10 uM, read-out: % Ctrl
[20] = target: 3',5'-cyclic-AMP phosphodiesterase 4D (Homo sapiens) (UniProt Q08499); assay: Inhibitor of PDE4D2 in the Eurofins Cerep SafetyScreen44 (BI) by Scintillation counting (Cerep_4077); settings: Compound concentration 10.0 uM
[21] = target: Alpha-2A adrenergic receptor (Homo sapiens) (UniProt P08913); assay: Inhibitor of ALPHA2A/HU in the Eurofins Cerep SafetyScreen44 (BI) by Radioactive Assay (Cerep_13); settings: Compound concentration 10.0 uM
Chain of Alpha-2A adrenergic receptor (Homo sapiens) (P08913 whole entry): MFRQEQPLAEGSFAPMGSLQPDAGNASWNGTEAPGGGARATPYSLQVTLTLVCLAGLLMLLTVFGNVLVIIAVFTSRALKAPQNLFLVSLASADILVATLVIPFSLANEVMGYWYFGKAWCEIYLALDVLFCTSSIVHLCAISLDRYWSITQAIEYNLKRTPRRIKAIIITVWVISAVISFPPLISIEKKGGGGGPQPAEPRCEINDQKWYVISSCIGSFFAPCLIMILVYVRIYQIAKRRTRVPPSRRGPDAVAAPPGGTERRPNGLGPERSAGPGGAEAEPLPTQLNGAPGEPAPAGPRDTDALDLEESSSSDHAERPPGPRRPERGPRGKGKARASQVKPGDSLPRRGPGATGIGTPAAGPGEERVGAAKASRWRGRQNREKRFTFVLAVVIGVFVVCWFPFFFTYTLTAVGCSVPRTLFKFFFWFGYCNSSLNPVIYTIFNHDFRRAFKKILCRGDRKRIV

hERG (KCNH2) = hERG (KCNH2) (Homo sapiens, UniProt Q12809); assay: Inhibitor of HERG_DOFETILIDE in the Eurofins Cerep SafetyScreen44 (BI) by Scintillation counting (Cerep_4094); design: scale not given: the % may be the effect or the level left; settings: probe [3H] dofetilide, compound concentration 10 uM, read-out: % Ctrl
[22] = target: Glutamate NMDA receptor (Rattus norvegicus) (UniProt P35439+Q00959+Q00960+Q00961+Q62645+Q8VHN2+Q9R1M7); assay: Inhibitor of NMDA/R in the Eurofins Cerep SafetyScreen44 (BI) by Radioactive Assay (Cerep_66); assay type: protein-complex assay; settings: Compound concentration 10.0 uM
[23] = target: Cannabinoid receptor 2 (Homo sapiens) (UniProt P34972); assay: Activity against CB2/PERIPH/H in the Eurofins Cerep SafetyScreen44 (BI) by Radioactive Assay (Cerep_37); settings: Compound concentration 10.0 uM
[24] = target: cGMP-inhibited 3',5'-cyclic phosphodiesterase 3A (Homo sapiens) (UniProt Q14432); assay: Inhibitor of PDE3A in the Eurofins Cerep SafetyScreen44 (BI) by HTRF-homogeneous time resolved fluoresce (Cerep_4072); settings: Compound concentration 10.0 uM
[25] = target: Sodium-dependent noradrenaline transporter (Homo sapiens) (UniProt P23975); assay: norepinephrine transporter Eurofins-Cerep binding assay; design: ligand concentration 1 nM; settings: Compound concentration 10.0 uM
Chain of Sodium-dependent noradrenaline transporter (Homo sapiens) (P23975 whole entry): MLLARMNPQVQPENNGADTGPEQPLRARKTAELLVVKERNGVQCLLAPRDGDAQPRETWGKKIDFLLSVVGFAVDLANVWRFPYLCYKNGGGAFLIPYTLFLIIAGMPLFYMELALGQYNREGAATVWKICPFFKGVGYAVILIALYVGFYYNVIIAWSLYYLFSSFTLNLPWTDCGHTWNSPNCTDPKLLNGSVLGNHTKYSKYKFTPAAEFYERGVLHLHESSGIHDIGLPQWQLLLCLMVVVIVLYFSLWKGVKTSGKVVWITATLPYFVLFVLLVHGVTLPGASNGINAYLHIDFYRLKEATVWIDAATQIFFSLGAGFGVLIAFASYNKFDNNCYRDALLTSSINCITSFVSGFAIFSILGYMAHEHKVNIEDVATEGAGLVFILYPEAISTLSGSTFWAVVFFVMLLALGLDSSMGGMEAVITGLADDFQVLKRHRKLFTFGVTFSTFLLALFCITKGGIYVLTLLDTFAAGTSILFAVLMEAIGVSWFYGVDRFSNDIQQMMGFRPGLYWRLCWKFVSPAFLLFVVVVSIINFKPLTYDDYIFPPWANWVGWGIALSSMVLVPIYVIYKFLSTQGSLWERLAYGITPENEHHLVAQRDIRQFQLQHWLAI

[26] = target: 5-hydroxytryptamine receptor 1B (Homo sapiens) (UniProt P28222); assay: 5-HT1B Eurofins-Cerep binding assay; design: ligand concentration 1 nM; settings: Compound concentration 10.0 uM
[27] = target: Vasopressin V1a receptor (Homo sapiens) (UniProt P37288); assay: V1a Eurofins-Cerep binding assay; design: ligand concentration 0.3 nM; settings: Compound concentration 10.0 uM
[28] = target: Mu-type opioid receptor (Homo sapiens) (UniProt P35372); assay: mu (MOP) Eurofins-Cerep binding assay; design: ligand concentration 0.5 nM; settings: Compound concentration 10.0 uM
[29] = target: Prostaglandin G/H synthase 2 (Homo sapiens) (UniProt P35354); assay: Inhibitor of COX-2 in the Eurofins Cerep SafetyScreen44 (BI) by Fluorimetry (Cerep_4186); settings: Compound concentration 10.0 uM
Chain of Prostaglandin G/H synthase 2 (Homo sapiens) (P35354 whole entry): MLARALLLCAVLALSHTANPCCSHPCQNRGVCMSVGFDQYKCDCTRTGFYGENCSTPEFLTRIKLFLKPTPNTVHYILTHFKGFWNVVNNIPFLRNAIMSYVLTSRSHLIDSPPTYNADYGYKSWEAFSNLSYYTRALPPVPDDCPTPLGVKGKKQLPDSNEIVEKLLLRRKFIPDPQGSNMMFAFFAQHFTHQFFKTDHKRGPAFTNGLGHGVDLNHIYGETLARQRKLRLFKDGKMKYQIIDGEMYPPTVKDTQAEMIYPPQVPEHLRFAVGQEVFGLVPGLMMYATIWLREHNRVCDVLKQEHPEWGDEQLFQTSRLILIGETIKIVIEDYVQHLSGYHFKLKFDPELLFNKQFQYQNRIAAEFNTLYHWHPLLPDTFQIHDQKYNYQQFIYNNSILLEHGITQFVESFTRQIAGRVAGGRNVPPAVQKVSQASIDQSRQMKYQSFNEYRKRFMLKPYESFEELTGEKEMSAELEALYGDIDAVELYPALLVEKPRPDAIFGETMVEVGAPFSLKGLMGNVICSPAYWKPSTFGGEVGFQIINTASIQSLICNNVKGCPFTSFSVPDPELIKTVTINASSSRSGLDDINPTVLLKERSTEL

[30] = target: 5-hydroxytryptamine receptor 2B (Homo sapiens) (UniProt P41595); assay: 5-HT2B Eurofins-Cerep binding assay; settings: Compound concentration 10.0 uM
[31] = target: Sodium-dependent serotonin transporter (Homo sapiens) (UniProt P31645); assay: 5-HT transporter Eurofins-Cerep binding assay; design: ligand concentration 2 nM; settings: Compound concentration 10.0 uM
[32] = target: Muscarinic acetylcholine receptor M1 (Homo sapiens) (UniProt P11229); assay: M1 Eurofins-Cerep binding assay; design: ligand concentration 2 nM; settings: Compound concentration 10.0 uM
[33] = target: Cannabinoid receptor 1 (Homo sapiens) (UniProt P21554); assay: CB1 Eurofins-Cerep binding assay; settings: Compound concentration 10.0 uM
[34] = target: Alpha-1A adrenergic receptor (Homo sapiens) (UniProt P35348); assay: Agonist activity in the Eurofins Cerep SafetyScreen44 (BI) against ALPHA1AH_ANTAG by Scintillation counting (Cerep_2338); settings: Compound concentration 10.0 uM
Chain of Alpha-1A adrenergic receptor (Homo sapiens) (P35348 whole entry): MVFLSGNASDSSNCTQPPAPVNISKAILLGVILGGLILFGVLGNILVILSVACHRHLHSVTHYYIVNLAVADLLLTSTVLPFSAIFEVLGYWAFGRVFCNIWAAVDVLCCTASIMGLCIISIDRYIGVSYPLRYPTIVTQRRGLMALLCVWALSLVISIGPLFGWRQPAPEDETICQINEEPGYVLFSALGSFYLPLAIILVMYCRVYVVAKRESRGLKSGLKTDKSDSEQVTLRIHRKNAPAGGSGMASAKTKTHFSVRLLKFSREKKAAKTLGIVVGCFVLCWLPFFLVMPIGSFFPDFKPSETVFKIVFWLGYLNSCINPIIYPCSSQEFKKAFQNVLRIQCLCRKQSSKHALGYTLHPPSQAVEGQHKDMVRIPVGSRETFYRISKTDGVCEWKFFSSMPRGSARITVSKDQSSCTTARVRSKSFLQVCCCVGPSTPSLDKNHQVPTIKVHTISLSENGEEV

[35] = target: 5-hydroxytryptamine receptor 2A (Homo sapiens) (UniProt P28223); assay: Agonist activity in the Eurofins Cerep SafetyScreen44 (BI) against 5HT2AH_AGON by Scintillation counting (Cerep_471); settings: Compound concentration 10.0 uM
[36] = target: MAO-A (amine oxidase [flavin-containing] A) (Homo sapiens, UniProt P21397); assay: Agonist activity in the Eurofins Cerep SafetyScreen44 (BI) against MAO-A_ANTAG by Scintillation counting (Cerep_443); design: scale not given: the % may be the effect or the level left; settings: rat, compound concentration 10 uM, read-out: % Ctrl
[37] = target: Angiotensin-converting enzyme (Homo sapiens) (UniProt P12821); assay: Activity against ACE(HU_AMTCH400) in the Eurofins Cerep SafetyScreen44 (BI) by Photometry (Cerep_3441); settings: Compound concentration 10.0 uM
[38] = target: Sodium-dependent dopamine transporter (Homo sapiens) (UniProt Q01959); assay: dopamine transporter Eurofins-Cerep binding assay; settings: Compound concentration 10.0 uM
[39] = target: Prostaglandin G/H synthase 1 (Homo sapiens) (UniProt P23219); assay: Inhibitor of COX-1 in the Eurofins Cerep SafetyScreen44 (BI) by Fluorimetry (Cerep_4173); settings: Compound concentration 10.0 uM
Homo sapiens = species on record: Homo sapiens; assay: Agonist activity in the Eurofins Cerep SafetyScreen44 (BI) against N_NEURO_A4B2 by Radioligand Binding (Cerep_3029); assay type: protein-complex assay; settings: Compound concentration 10.0 uM
[40] = target: Beta-1 adrenergic receptor (Homo sapiens) (UniProt P08588); assay: beta 1 Eurofins-Cerep binding assay; design: ligand concentration 0.3 nM; settings: Compound concentration 10.0 uM
[41] = target: D(1A) dopamine receptor (Homo sapiens) (UniProt P21728); assay: D1 Eurofins-Cerep binding assay; design: ligand concentration 0.3 nM; settings: Compound concentration 10.0 uM
[42] = target: Platelet-activating factor receptor (Homo sapiens, UniProt P25105); assay: PAF Receptor Binding

Chain of Beta-2 adrenergic receptor (Homo sapiens) (P07550 whole entry, looked up): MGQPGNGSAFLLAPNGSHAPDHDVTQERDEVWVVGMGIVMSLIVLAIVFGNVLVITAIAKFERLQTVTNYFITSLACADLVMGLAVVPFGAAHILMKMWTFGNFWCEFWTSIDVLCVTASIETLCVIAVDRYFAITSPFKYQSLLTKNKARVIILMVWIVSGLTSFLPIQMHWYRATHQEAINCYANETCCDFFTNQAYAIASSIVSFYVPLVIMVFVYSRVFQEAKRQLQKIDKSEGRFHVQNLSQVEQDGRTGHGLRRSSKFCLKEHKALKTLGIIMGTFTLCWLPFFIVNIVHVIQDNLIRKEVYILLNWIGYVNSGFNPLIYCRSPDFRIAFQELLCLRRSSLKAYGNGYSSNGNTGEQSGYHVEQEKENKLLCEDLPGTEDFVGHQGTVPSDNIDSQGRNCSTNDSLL

Compound Cc1nnc2n1-c1sc3c(c1C(c1ccccc1Cl)=NC2)C[C@@H](C(=O)N1CCOCC1)C3 has a residual activity [1] of 97%, a residual activity [2] of 103% and a residual activity [3] of 91%. It also gave a residual activity [4] of 103%, a residual activity [5] of 106% and a residual activity (Rattus norvegicus [6]) of 102%. It also gave a residual activity [7] of 90%, a residual activity [8] of 82% and a residual activity [9] of 100%. For the same compound, the residual activity [10] was 84%, the residual activity [11] was 101% and the residual activity [12] was 100%. It also gave a residual activity (Rattus norvegicus [13]) of 101%, a residual activity [14] of 106% and a residual activity [15] of 106%. For the same compound, the residual activity [16] was 115%, the residual activity [17] was 103% and the residual activity [18] was 88%. The activity at 10 µM [19] was 103% (not active), the residual activity [20] was 104% and the residual activity [21] was 102%. The activity at 10 µM (hERG (KCNH2)) was 93% (not active), the residual activity [22] was 97% and the residual activity [23] was 107%. For the same compound, the residual activity [24] was 109%, the residual activity [25] was 99% and the residual activity [26] was 65%. The residual activity [27] was 84%, the residual activity [28] was 109% and the residual activity [29] was 96%. The residual activity [30] was 92%, the residual activity [31] was 98% and the residual activity [32] was 104%. For the same compound, the residual activity [33] was 123%, the residual activity [34] was 95% and the residual activity [35] was 100%. The activity at 10 µM ([36]; target entry is the homologue from another species) was 107% (not active), the residual activity [37] was 102% and the residual activity [38] was 96%. The residual activity [39] was 97%, the residual activity (Homo sapiens) was 94% and the residual activity [40] was 88%. For the same compound, the residual activity [41] was 97% and the Kd [42] was 660 nM (not active).
In the case of Cc1nnc2n1-c1sc(CCC(=O)N3CCOCC3)cc1C(c1ccccc1Cl)=NC2 [APAFANT], the residual activity [1] is reported as 114%, the residual activity [2] is reported as 107% and the residual activity [3] is reported as 95%. It also gave a residual activity [4] of 102%, a residual activity [5] of 123% and a residual activity (Rattus norvegicus [6]) of 12%. It also gave a residual activity [7] of 90%, a residual activity [8] of 98% and a residual activity [9] of 101%. For the same compound, the residual activity [10] was 98%, the residual activity [11] was 99% and the residual activity [12] was 108%. For the same compound, the residual activity (Rattus norvegicus [13]) was 94%, the residual activity [14] was 104% and the residual activity [16] was 105%. For the same compound, the residual activity [17] was 106%, the residual activity [18] was 101% and the activity at 10 µM [19] was 106% (not active). For the same compound, the residual activity [20] was 103%, the residual activity [21] was 100% and the activity at 10 µM (hERG (KCNH2)) was 105% (not active). The residual activity [22] was 101%, the residual activity [23] was 111% and the residual activity [24] was 105%. It also gave a residual activity [25] of 94%, a residual activity [26] of 91% and a residual activity [27] of 109%. For the same compound, the residual activity [28] was 108%, the residual activity [29] was 47% and the residual activity [30] was 86%. It also gave a residual activity [31] of 106%, a residual activity [32] of 107% and a residual activity [33] of 103%. For the same compound, the residual activity [34] was 99%, the residual activity [35] was 114% and the activity at 10 µM [36] was 93% (not active). The residual activity [37] was 96%, the residual activity [38] was 97% and the residual activity [39] was 96%. For the same compound, the residual activity (Homo sapiens) was 104%, the residual activity [40] was 101% and the residual activity [41] was 101%.
